Data: US12503461B2, “Pesticidally active heterocyclic derivatives with sulfur and sulfoximine containing substituents” (SYNGENTA CROP PROTECTION AG, priority 2019, dated 2025)

Assays:
Format in all cases: in vivo
[1] = test system: Diabrotica balteata (Corn Root Worm); experiment: Example B1: Diabrotica balteata (corn root worm), sprayed maize sprouts on agar, L2 larvae; conditions: 96 h, application rate of 200 ppm, 4 days after infestation, in comparison to untreated samples, read-out: effect in at least one of the two categories (mortality or growth inhibition)
Procedure: Example B1: Diabrotica balteata (Corn Root Worm
Maize sprouts placed onto an agar layer in 24-well microtiter plates were treated with aqueous test solutions prepared from 10′000 ppm DMSO stock solutions by spraying. After drying, the plates were infested with L2 larvae (6 to 10 per well). The samples were assessed for mortality and growth inhibition in comparison to untreated samples 4 days after infestation.

[2] = test system: Euschistus heros (Neotropical Brown Stink Bug); experiment: Example B2: Euschistus heros (neotropical brown stink bug), sprayed soybean leaves, N2 nymphs; conditions: 120 h, application rate of 200 ppm, 5 days after infestation, in comparison to untreated samples, read-out: effect in at least one of the two categories (mortality or growth inhibition)
Procedure: Example B2: Euschistus heros (Neotropical Brown Stink Bug
Soybean leaves on agar in 24-well microtiter plates were sprayed with aqueous test solutions prepared from 10′000 ppm DMSO stock solutions. After drying the leaves were infested with N2 nymphs. The samples were assessed for mortality and growth inhibition in comparison to untreated samples 5 days after infestation.

[3] = test system: Plutella xylostella (Diamond Back Moth); experiment: Example B4: Plutella xylostella (diamond back moth), treated artificial diet, eggs; conditions: 192 h, application rate of 200 ppm, 8 days after infestation, in comparison to untreated samples, read-out: effect in at least one of the two categories (mortality or growth inhibition)
Procedure: Example B4: Plutella xylostella (Diamond Back Moth
24-well microtiter plates with artificial diet were treated with aqueous test solutions prepared from 10′000 ppm DMSO stock solutions by pipetting. After drying, Plutella eggs were pipetted through a plastic stencil onto a gel blotting paper and the plate was closed with it. The samples were assessed for mortality and growth inhibition in comparison to untreated samples 8 days after infestation.

[4] = test system: Spodoptera littoralis (Egyptian Cotton Leaf Worm); experiment: Example B7: Spodoptera littoralis (Egyptian cotton leaf worm), sprayed cotton leaf discs, L1 larvae; conditions: foliar, 72 h, application rate of 200 ppm, 3 days after infestation, in comparison to untreated samples
Procedure: Example B7: Spodoptera littoralis (Egyptian Cotton Leaf Worm
Cotton leaf discs were placed onto agar in 24-well microtiter plates and sprayed with aqueous test solutions prepared from 10′000 ppm DMSO stock solutions. After drying the leaf discs were infested with five L1 larvae. The samples were assessed for mortality, anti-feeding effect, and growth inhibition in comparison to untreated samples 3 days after infestation. Control of Spodoptera littoralis by a test sample is given when at least one of the categories mortality, anti-feedant effect, and growth inhibition is higher than the untreated sample.

CCS(=O)(=O)c1cc(C2(C#N)CC2)cnc1-c1nc2cc(S(=O)(=NC3CC3)C(F)(F)F)ccc2n1C (stereo not drawn) [P31, 1-[6-[5-[N-cyclopropyl-S-(trifluoromethyl)sulfonimidoyl]-1-methyl-benzimidazol-2-yl]-5-ethylsulfonyl-3-pyridyl]cyclopropanecarbonitrile]
≥ 80%: percent effect (mortality or growth inhibition) at 200 ppm [1] | effect (mortality or growth inhibition) at 200 ppm [2] | percent effect (mortality or growth inhibition) at 200 ppm [3]

CCS(=O)(=O)c1cc(C2(C#N)CC2)cnc1-c1nc2cc(S(=O)(=NC)C(F)(F)F)ccc2o1 (stereo not drawn) [P29, 1-[5-ethylsulfonyl-6-[5-[N-methyl-S-(trifluoromethyl)sulfonimidoyl]-1,3-benzoxazol-2-yl]-3-pyridyl]cyclopropanecarbonitrile]
≥ 80%: percent effect (mortality or growth inhibition) at 200 ppm [1] | effect (mortality or growth inhibition) at 200 ppm [2] | percent control (mortality, anti-feeding effect or growth inhibition) at 200 ppm [4] | percent effect (mortality or growth inhibition) at 200 ppm [3]

CCS(=O)(=O)c1cc(-c2ncccn2)cnc1-c1nc2cc(S(=N)(=O)C(F)(F)F)ccc2o1 (stereo not shown) [P36, [2-(3-ethylsulfonyl-5-pyrimidin-2-yl-2-pyridyl)-1,3-benzoxazol-5-yl]-imino-oxo-(trifluoromethyl)-λ^6-sulfane]
≥ 80%: percent effect (mortality or growth inhibition) at 200 ppm [1] | effect (mortality or growth inhibition) at 200 ppm [2] | percent control (mortality, anti-feeding effect or growth inhibition) at 200 ppm [4] | percent effect (mortality or growth inhibition) at 200 ppm [3]

CCS(=O)(=O)c1cccnc1-c1nc2cc(S(=N)(=O)C(F)(F)F)ccc2o1 (stereo not shown) [P16, [2-(3-ethylsulfonyl-2-pyridyl)-1,3-benzoxazol-5-yl]-imino-oxo-(trifluoromethyl)-λ^6-sulfane]
≥ 80%: percent effect (mortality or growth inhibition) at 200 ppm [1] | effect (mortality or growth inhibition) at 200 ppm [2] | percent control (mortality, anti-feeding effect or growth inhibition) at 200 ppm [4] | percent effect (mortality or growth inhibition) at 200 ppm [3]

CCS(=O)(=O)c1cc(OCC(F)(F)F)cnc1-c1nc2cc(S(=O)(=NC(C)=O)C(F)(F)F)ccc2o1 (stereo not shown) [P24, N-[[2-[3-ethylsulfonyl-5-(2,2,2-trifluoroethoxy)-2-pyridyl]-1,3-benzoxazol-5-yl]-oxo-(trifluoromethyl)-λ^6-sulfanylidene]acetamide]
≥ 80%: percent effect (mortality or growth inhibition) at 200 ppm [1] | effect (mortality or growth inhibition) at 200 ppm [2] | percent control (mortality, anti-feeding effect or growth inhibition) at 200 ppm [4] | percent effect (mortality or growth inhibition) at 200 ppm [3]

CCS(=O)(=O)c1cc(-c2ncc(Cl)cn2)cnc1-c1nc2cc(S(=N)(=O)C(F)(F)F)ccc2o1 (stereo not shown) [P42, [2-[5-(5-chloropyrimidin-2-yl)-3-ethylsulfonyl-2-pyridyl]-1,3-benzoxazol-5-yl]-imino-oxo-(trifluoromethyl)-λ^6-sulfane]
≥ 80%: percent effect (mortality or growth inhibition) at 200 ppm [1] | effect (mortality or growth inhibition) at 200 ppm [2] | percent control (mortality, anti-feeding effect or growth inhibition) at 200 ppm [4] | percent effect (mortality or growth inhibition) at 200 ppm [3]

CCN=S(=O)(c1ccc2oc(-c3ncc(C4(C#N)CC4)cc3S(=O)(=O)CC)nc2c1)C(F)(F)F (stereo not drawn) [P8, 1-[5-ethylsulfonyl-6-[5-[N-ethyl-S-(trifluoromethyl)sulfonimidoyl]-1,3-benzoxazol-2-yl]-3-pyridyl]cyclopropanecarbonitrile]
≥ 80%: percent effect (mortality or growth inhibition) at 200 ppm [1] | effect (mortality or growth inhibition) at 200 ppm [2] | percent control (mortality, anti-feeding effect or growth inhibition) at 200 ppm [4] | percent effect (mortality or growth inhibition) at 200 ppm [3]

CCS(=O)(=O)c1cc(Oc2ccccn2)cnc1-c1nc2cc(S(=O)(=NC(C)=O)C(F)(F)F)ccc2o1 (stereo not shown) [P25, N-[[2-[3-ethylsulfonyl-5-(2-pyridyloxy)-2-pyridyl]-1,3-benzoxazol-5-yl]-oxo-(trifluoromethyl)-λ^6-sulfanylidene]acetamide]
≥ 80%: percent effect (mortality or growth inhibition) at 200 ppm [1] | effect (mortality or growth inhibition) at 200 ppm [2] | percent control (mortality, anti-feeding effect or growth inhibition) at 200 ppm [4] | percent effect (mortality or growth inhibition) at 200 ppm [3]
